In US20130011493A1, “PLANT DISEASE CONTROLLING COMPOSITION AND METHOD FOR CONTROLLING PLANT DISEASE” (SUMITOMO CHEMICAL COMPANY, LIMITED, priority 2010, published 2013):

Tested on: gray mold fungus (Botrytis cinerea)
Test: cucumber leaf disk preventive test against gray mold fungus
Type: in vivo
Conditions: 15° C., four days
Experimental: To a SUS beaker are added 30 parts of the present compound (racemate), 5 parts of Soprophor FLK (polyoxyethylene tristyrylphenyl ether phosphate, produced by Rhodia Nicca Ltd.), 65 parts of ion-exchange water and 150 parts of glass beads (1.0 mm diameter). The mixture is subjected to grinding at a velocity of 1000 rpm with cooling to 10° C., and thereafter the glass beads are separated, so as to obtain a flowable formulation comprising the present compound (racemate).
True leaf of cucumber is punched out with cork borer to 13 mm in diameter to prepare a leaf disk. In 24 well microwell plate that is dispensed with 1 ml 0.8% water agar, the leaf disk is placed such that the upper side of the leaf is in an upward direction. […]
After confirming that the testing medical solution is dried, conidium of gray mold fungus (Botrytis cinerea) is suspended into potato dextrose broth (DIFCO) in a density of about 10^5 conidium/mL and is then subjected to a spray inoculation. After leaving to stand the leaf disk in a growth chamber set up at 15° C. for four days, an onset area on the leaf is measured and then calculated an onset area rate (hereinafter, referred to as an onset area rate of treated group). […]
A preventive value is calculated from the above onset area rate of treated group and the onset area rate of non-treated group by the following equation: […]

copper hydrochloride
preventive value (%) (copper hydrochloride alone 0.5 ppm): 10%
preventive value (%) (copper hydrochloride alone 5.0 ppm): 15%
